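A five-concentration, 48-hour dose response in 96-well plates underlies each endpoint, interpolated linearly between surrounding concentrations. GI50 marks 50% less growth. TGI is the concentration that stops growth completely.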
Key:
Experiment in all cases: NCI-60 cell line screen, 48 h
786-0 renal = system: 786-0 renal
A498 renal = system: A498 renal
A549 NSCLC = system: A549 NSCLC
ACHN renal = system: ACHN renal
BT-549 breast = system: BT-549 breast
CAKI-1 renal = system: CAKI-1 renal
CCRF-CEM leukemia = system: CCRF-CEM leukemia
COLO 205 colon = system: COLO 205 colon
EKVX NSCLC = system: EKVX NSCLC
HCC-2998 colon = system: HCC-2998 colon
HCT-116 colon = system: HCT-116 colon
HCT-15 colon = system: HCT-15 colon
HL-60(TB) leukemia = system: HL-60(TB) leukemia
HOP-62 NSCLC = system: HOP-62 NSCLC
HOP-92 NSCLC = system: HOP-92 NSCLC
HS 578T breast = system: HS 578T breast
HT29 colon = system: HT29 colon
IGROV1 ovarian = system: IGROV1 ovarian
K-562 leukemia = system: K-562 leukemia
LOX IMVI melanoma = system: LOX IMVI melanoma
M14 melanoma = system: M14 melanoma
MALME-3M melanoma = system: MALME-3M melanoma
MCF7 breast = system: MCF7 breast
MDA-MB-231 breast = system: MDA-MB-231 breast
MDA-MB-435 = system: MDA-MB-435
MOLT-4 leukemia = system: MOLT-4 leukemia
NCI-H226 lung = system: NCI-H226 lung
NCI-H23 lung = system: NCI-H23 lung
NCI-H460 lung = system: NCI-H460 lung
NCI-H522 lung = system: NCI-H522 lung
NCI/ADR-RES ovarian = system: NCI/ADR-RES ovarian
OVCAR-3 ovarian = system: OVCAR-3 ovarian
OVCAR-4 ovarian = system: OVCAR-4 ovarian
OVCAR-5 ovarian = system: OVCAR-5 ovarian
OVCAR-8 ovarian = system: OVCAR-8 ovarian
PC-3 prostate = system: PC-3 prostate
RPMI-8226 leukemia = system: RPMI-8226 leukemia
SF-268 CNS = system: SF-268 CNS
SF-295 CNS = system: SF-295 CNS
SF-539 CNS = system: SF-539 CNS
SK-MEL-2 melanoma = system: SK-MEL-2 melanoma
SK-MEL-28 melanoma = system: SK-MEL-28 melanoma
SK-MEL-5 melanoma = system: SK-MEL-5 melanoma
SK-OV-3 ovarian = system: SK-OV-3 ovarian
SN12C renal = system: SN12C renal
SNB-19 CNS = system: SNB-19 CNS
SNB-75 CNS = system: SNB-75 CNS
SW-620 colon = system: SW-620 colon
T-47D breast = system: T-47D breast
TK-10 renal = system: TK-10 renal
U251 CNS = system: U251 CNS
UACC-257 melanoma = system: UACC-257 melanoma
UACC-62 melanoma = system: UACC-62 melanoma
UO-31 renal = system: UO-31 renal

## COC(=O)c1oc2c(C(C)=O)c(OCCN3CCOCC3)c(OC)cc2c1C
786-0 renal
  GI50: > 100 µM
  TGI: > 100 µM
A498 renal
  GI50: > 100 µM
  TGI: > 100 µM
A549 NSCLC
  GI50: > 100 µM
  TGI: > 100 µM
ACHN renal
  GI50: > 100 µM
  TGI: > 100 µM
BT-549 breast
  GI50: > 100 µM
  TGI: > 100 µM
CAKI-1 renal
  GI50: > 100 µM
  TGI: > 100 µM
CCRF-CEM leukemia
  GI50: > 100 µM
  TGI: > 100 µM
COLO 205 colon
  GI50: > 100 µM
  TGI: > 100 µM
EKVX NSCLC
  GI50: > 100 µM
  TGI: > 100 µM
HCC-2998 colon
  GI50: > 100 µM
  TGI: > 100 µM
HCT-116 colon
  GI50: > 100 µM
  TGI: > 100 µM
HCT-15 colon
  GI50: > 100 µM
  TGI: > 100 µM
HL-60(TB) leukemia
  GI50: > 100 µM
  TGI: > 100 µM
HOP-62 NSCLC
  GI50: > 100 µM
  TGI: > 100 µM
HOP-92 NSCLC
  GI50: > 100 µM
  TGI: > 100 µM
HS 578T breast
  GI50: > 100 µM
  TGI: > 100 µM
HT29 colon
  GI50: > 100 µM
  TGI: > 100 µM
IGROV1 ovarian
  GI50: > 100 µM
  TGI: > 100 µM
K-562 leukemia
  GI50: > 100 µM
  TGI: > 100 µM
LOX IMVI melanoma
  GI50: > 100 µM
  TGI: > 100 µM
M14 melanoma
  GI50: > 100 µM
  TGI: > 100 µM
MALME-3M melanoma
  GI50: > 100 µM
  TGI: > 100 µM
MCF7 breast
  GI50: > 100 µM
  TGI: > 100 µM
MDA-MB-231 breast
  GI50: > 100 µM
  TGI: > 100 µM
MDA-MB-435
  GI50: > 100 µM
  TGI: > 100 µM
MOLT-4 leukemia
  GI50: > 100 µM
  TGI: > 100 µM
NCI-H226 lung
  GI50: > 100 µM
  TGI: > 100 µM
NCI-H23 lung
  GI50: > 100 µM
  TGI: > 100 µM
NCI-H460 lung
  GI50: > 100 µM
  TGI: > 100 µM
NCI-H522 lung
  GI50: > 100 µM
  TGI: > 100 µM
NCI/ADR-RES ovarian
  GI50: > 100 µM
  TGI: > 100 µM
OVCAR-3 ovarian
  GI50: > 100 µM
  TGI: > 100 µM
OVCAR-4 ovarian
  GI50: > 100 µM
  TGI: > 100 µM
OVCAR-5 ovarian
  GI50: > 100 µM
  TGI: > 100 µM
OVCAR-8 ovarian
  GI50: > 100 µM
  TGI: > 100 µM
PC-3 prostate
  GI50: > 100 µM
  TGI: > 100 µM
RPMI-8226 leukemia
  GI50: > 100 µM
  TGI: > 100 µM
SF-268 CNS
  GI50: > 100 µM
  TGI: > 100 µM
SF-295 CNS
  GI50: > 100 µM
  TGI: > 100 µM
SF-539 CNS
  GI50: > 100 µM
  TGI: > 100 µM
SK-MEL-2 melanoma
  GI50: > 100 µM
  TGI: > 100 µM
SK-MEL-28 melanoma
  GI50: > 100 µM
  TGI: > 100 µM
SK-MEL-5 melanoma
  GI50: > 100 µM
  TGI: > 100 µM
SK-OV-3 ovarian
  GI50: > 100 µM
  TGI: > 100 µM
SN12C renal
  GI50: > 100 µM
  TGI: > 100 µM
SNB-19 CNS
  GI50: > 100 µM
  TGI: > 100 µM
SNB-75 CNS
  GI50: > 100 µM
  TGI: > 100 µM
SW-620 colon
  GI50: > 100 µM
  TGI: > 100 µM
T-47D breast
  GI50: > 100 µM
  TGI: > 100 µM
TK-10 renal
  GI50: > 100 µM
  TGI: > 100 µM
U251 CNS
  GI50: > 100 µM
  TGI: > 100 µM
UACC-257 melanoma
  GI50: > 100 µM
  TGI: > 100 µM
UACC-62 melanoma
  GI50: > 100 µM
  TGI: > 100 µM
UO-31 renal
  GI50: > 100 µM
  TGI: > 100 µM

— PubChem BioAssay (NCI)
